# Experimental data as given in patent US4515942A, “Antibiotics KA-6606 XII, XIII, XV, XVI and XVII” (Kowa Company, Ltd., priority 1980, dated 1985).
# Assays:
# [1] = system: Bacillus subtilis ATCC 6633; assay: disc plate method (Table 2); type: cell-based; details: paper disc 8 mm; for Inhibition zone (diameter): 1 mg/ml; for Inhibition zone (diameter) / zone of inhibition at 1000 µg/mL: Bacillus subtilis ATCC 6633 (Table 2); for zone of inhibition at 1000 µg/mL: ATCC6633, 1 mg/ml
# Description: (§1) Tables 1 and 2 show the antibacterial spectra of the antibiotics KA-6606 VII to KA-6606 XVII against various bacteria, determined by the disc plate method, in comparison with the KA-6606 II substance. Each of the chemicals is used as impregnated in a paper disc having a diameter of 8 mm.
# [2] = system: Escherichia coli NIHJ JC-2; assay: disc plate method (Table 2); type: cell-based; details: paper disc 8 mm; for Inhibition zone (diameter): 1 mg/ml; for zone of inhibition at 1000 µg/mL: NIHJJC2, 1 mg/ml
# Description: as §1
# Proteus vulgaris OX-107 = assay: disc plate method (Table 2); type: cell-based; details: paper disc 8 mm; for Inhibition zone (diameter): 1 mg/ml; for zone of inhibition at 1000 µg/mL: OX107, 1 mg/ml
# Description: as §1
# [3] = system: Pseudomonas aeruginosa NCTC 10490; assay: disc plate method (Table 2); type: cell-based; details: paper disc 8 mm; for Inhibition zone (diameter): 1 mg/ml; for zone of inhibition at 1000 µg/mL: NCTC10490, 1 mg/ml
# Description: as §1
# Serratia marcescens NHL = assay: disc plate method (Table 2); type: cell-based; details: paper disc 8 mm; for Inhibition zone (diameter) / zone of inhibition at 1000 µg/mL: 1 mg/ml
# Description: as §1
# [4] = system: Staphylococcus aureus 209D-JC-1; assay: disc plate method (Table 2); type: cell-based; details: paper disc 8 mm; for Inhibition zone (diameter): 1 mg/ml; for zone of inhibition at 1000 µg/mL: 209DJC1, 1 mg/ml
# Description: as §1
# Solubility in solvents = type: physicochemical
# Stability = type: physicochemical; details: pH range in which stable
# [5] = system: Klebsiella pneumoniae PCI 602; assay: disc plate method (Table 2); type: cell-based; details: paper disc 8 mm; for Inhibition zone (diameter): 1 mg/ml; for zone of inhibition at 1000 µg/mL: Klebsiella pneumoniae, PCI602, 1 mg/ml, read-out: Inhibition zone (diameter)
# Description: as §1
# Proteus inconstans = assay: disc plate method (Table 2); type: cell-based; details: 1 mg/ml, paper disc 8 mm, Proteus inconstans (Table 2); for zone of inhibition at 1000 µg/mL: Providencia alcalifaciens, read-out: Inhibition zone (diameter)
# Description: as §1
# [6] = Bacillus subtilis, read-out: Inhibition zone (diameter)
# [7] = Escherichia coli, read-out: Inhibition zone (diameter)
# [8] = Proteus vulgaris, read-out: Inhibition zone (diameter)
# [9] = Pseudomonas aeruginosa, read-out: Inhibition zone (diameter)
# [10] = Serratia marcescens, read-out: Inhibition zone (diameter)
# [11] = Staphylococcus aureus, read-out: Inhibition zone (diameter)
SMILES,Solubility in solvents: chloroform (Solubility in solvents),Solubility in solvents: ethyl acetate (Solubility in solvents),Solubility in solvents: methanol (Solubility in solvents),Solubility in solvents: water (Solubility in solvents),Stability (stable at pH) (Stability),Inhibition zone (diameter) [1] [mm],Inhibition zone (diameter) [2] [mm],Inhibition zone (diameter) [5] [mm],Inhibition zone (diameter) (Proteus inconstans) [mm],Inhibition zone (diameter) (Proteus vulgaris OX-107) [mm],Inhibition zone (diameter) [3] [mm],Inhibition zone (diameter) (Serratia marcescens NHL) [mm],Inhibition zone (diameter) [4] [mm],"zone of inhibition at 1000 µg/mL [1, 6] [mm]","zone of inhibition at 1000 µg/mL [2, 7] [mm]",zone of inhibition at 1000 µg/mL [5] [mm],zone of inhibition at 1000 µg/mL (Proteus vulgaris OX-107; [8]) [mm],"zone of inhibition at 1000 µg/mL [3, 9] [mm]",zone of inhibition at 1000 µg/mL (Serratia marcescens NHL; [10]) [mm],"zone of inhibition at 1000 µg/mL [4, 11] [mm]",further results
CNC1C(OC)CC(NC(N)=O)C(OC2OC(C(C)N)CCC2N)C1O (stereo not shown) [KA-6606 XVII],Insoluble,Insoluble,Easily soluble,Easily soluble,2-10 pH,–,–,–,–,–,–,–,–,–,–,–,–,–,–,–,"zone of inhibition at 10000 µg/mL ([1]; Bacillus subtilis, ATCC6633, 10 mg/ml, Bacillus subtilis ATCC 6633, read-out: Inhibition zone (diameter)): 17.3 mm; zone of inhibition at 10000 µg/mL ([2]; Escherichia coli, NIHJJC2, 10 mg/ml, read-out: Inhibition zone (diameter)): 10.7 mm; zone of inhibition at 10000 µg/mL (Proteus vulgaris OX-107; Proteus vulgaris, OX107, 10 mg/ml, read-out: Inhibition zone (diameter)): 16.8 mm; zone of inhibition at 10000 µg/mL ([3]; Pseudomonas aeruginosa, NCTC10490, 10 mg/ml, read-out: Inhibition zone (diameter)): 10.1 mm; zone of inhibition at 10000 µg/mL (Serratia marcescens NHL; Serratia marcescens, 10 mg/ml, read-out: Inhibition zone (diameter)): 13.6 mm; zone of inhibition at 10000 µg/mL ([4]; Staphylococcus aureus, 209DJC1, 10 mg/ml, read-out: Inhibition zone (diameter)): 14.2 mm"
CNC1C(O)CC(N)C(OC2OC(C(C)N)CCC2N)C1O (stereo not shown) [KA-6606 X],Insoluble,Insoluble,Easily soluble,Easily soluble,2-10 pH,22.5,16.3,17.4,11.9,16.6,13.8,16.5,23.3,–,–,–,–,–,–,–,–
CNC1C(OC)CC(N)C(OC2OC(C(C)N)=CCC2N)C1O (stereo not shown) [KA-6606 XIII],Insoluble,Insoluble,Easily soluble,Easily soluble,2-10 pH,–,–,–,–,–,–,–,–,22.6,18.4,17,18.5,14.8,18.5,22,zone of inhibition at 1000 µg/mL (Proteus inconstans): 14.3 mm
CNC1C(OC)CC(N)C(OC2OC(C(C)N)CCC2NC(N)=O)C1O (stereo not shown) [KA-6606 XVI],Insoluble,Insoluble,Easily soluble,Easily soluble,2-10 pH,–,–,–,–,–,–,–,–,20.6,16.2,8.5,15.8,11.8,16.3,16.3,zone of inhibition at 1000 µg/mL (Proteus inconstans): 8.9 mm
CNC1C(O)CC(N)C(OC2OC(C(C)N)CCC2N)C1O (stereo not shown) [KA-6606 IX],Insoluble,Insoluble,Easily soluble,Easily soluble,2-10 pH,–,–,–,9.4,–,–,–,–,23.8,16.7,13.7,15.2,15.9,16,22.9,–
CNC1C(O)CC(N)C(OC2OC(C(C)N)CCC2N)C1O (stereo not shown) [KA-6606 XI],Insoluble,Insoluble,Easily soluble,Easily soluble,2-10 pH,23.5,18.0,18.5,19.0,15.1,16.6,16.8,25.2,–,–,–,–,–,–,–,–
